Measurements published in patent US10273226B2, “Pyrazolyl-heteroarylamides as pesticides” (Bayer Animal Health GmbH, priority 2014, dated 2019).

Test system: Ctenocephalides felis
Assay: Ctenocephalides felis oral test
Assay type: in vivo
Conditions: application rate 100 ppm in citrated cattle blood; after 2 days
In short: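 Oral exposure of unfed adult fleas, roughly 20 per chamber, to compound-spiked citrated cattle blood taken up across a parafilm membrane. Read-out is percent kill at 2 days, where 100% means every flea dead.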

| Compound | efficacy (kill in %) |
| --- | --- |
| Cn1nc(C(F)(F)C(F)(F)F)c(C(F)(F)F)c1-n1cc(-c2ccc(F)c(NC(=O)C3(C)CC3)c2)cn1 [Example 1-058] | 100% |
| CN(C)C(=O)C(=O)Nc1cc(-c2cnn(-c3c(C(F)(F)F)c(C(F)(F)C(F)(F)F)nn3C)c2)ccc1F [Example 1-127] | 100% |
| Cn1nc(C(F)(F)C(F)(F)F)c(C(F)(F)F)c1-n1cc(-c2cccc(NC(=O)c3cc(F)cc(F)c3)c2)cn1 [Example 1-014] | 100% |
| Cn1nc(C(F)(F)C(F)(F)F)c(C(F)(F)F)c1-n1cc(-c2cnc(Cl)c(NC(=O)c3ccncc3)c2)cn1 [Example 2-006] | 100% |

Test system: Rhipicephalus sanguineus
Assay: Rhipicephalus sanguineus in vitro contact test with adult brown dog ticks
Assay type: in vivo
Conditions: application rate 5 μg/cm^2 (500 g/ha); after 48 h; ticks dead or moribund
In short: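 Test tubes (25 ml) were coated by dissolving active ingredient in acetone p.a., diluting to the required concentration, and spreading 250 μl over the inner walls and base on an orbital shaker at 30 rpm for 2 h. Once dry, 5-10 adult Rhipicephalus sanguineus were added, and tubes were capped with perforated lids and kept horizontal in darkness at room temperature. At 48 h, ticks were knocked down and heated at 45-50° C. for up to 5 min. Those unable to climb away were counted dead or moribund, and efficacy ran from 0% to 100%.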

| Compound | efficacy |
| --- | --- |
| Cn1nc(C(F)(F)C(F)(F)F)c(C(F)(F)F)c1-n1cc(-c2ccc(F)c(NC(=O)C3(C)CC3)c2)cn1 [Example 1-058] | 100% |
| CN(C)C(=O)C(=O)Nc1cc(-c2cnn(-c3c(C(F)(F)F)c(C(F)(F)C(F)(F)F)nn3C)c2)ccc1F [Example 1-127] | 100% |
| Cn1nc(C(F)(F)C(F)(F)F)c(C(F)(F)F)c1-n1cc(-c2cccc(NC(=O)c3cc(F)cc(F)c3)c2)cn1 [Example 1-014] | 100% |
| Cn1nc(C(F)(F)C(F)(F)F)c(C(F)(F)F)c1-n1cc(-c2cnc(Cl)c(NC(=O)c3ccncc3)c2)cn1 [Example 2-006] | 80% |

Test system: Spodoptera frugiperda
Assay: Spodoptera frugiperda spray test
Assay type: in vivo
Conditions: application rate 100 g/ha; caterpillars; after 7 days
In short: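 Maize leaf discs were sprayed with compound formulated in solvent plus water containing 1000 ppm emulsifier, dried, then infested with Spodoptera frugiperda caterpillars. Efficacy in % mortality was scored after 7 days (100% all killed, 0% none).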

| Compound | efficacy |
| --- | --- |
| Cn1nc(C(F)(F)C(F)(F)F)c(C(F)(F)F)c1-n1cc(-c2ccc(F)c(NC(=O)C3(C)CC3)c2)cn1 [Example 1-058] | 83% |
| CN(C)C(=O)C(=O)Nc1cc(-c2cnn(-c3c(C(F)(F)F)c(C(F)(F)C(F)(F)F)nn3C)c2)ccc1F [Example 1-127] | 100% |
| Cn1nc(C(F)(F)C(F)(F)F)c(C(F)(F)F)c1-n1cc(-c2cccc(NC(=O)c3cc(F)cc(F)c3)c2)cn1 [Example 1-014] | 100% |
| Cn1nc(C(F)(F)C(F)(F)F)c(C(F)(F)F)c1-n1cc(-c2cnc(Cl)c(NC(=O)c3ccncc3)c2)cn1 [Example 2-006] | 100% |

Test system: Boophilus microplus
Assay: Boophilus microplus injection test
Assay type: in vivo
Conditions: application rate 20 μg/animal; injection into abdomen; assessed after 7 days
In short: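 Engorged adult female Boophilus microplus ticks (5 per dose) each received a 1 μl abdominal injection of compound in DMSO and were held in a climate-controlled room. Efficacy was scored after 7 days from fertile egg laying, with unclear eggs kept until hatching (~42 days); 100% means no fertile eggs.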

| Compound | efficacy (laying of fertile eggs) |
| --- | --- |
| Cn1nc(C(F)(F)C(F)(F)F)c(C(F)(F)F)c1-n1cc(-c2ccc(F)c(NC(=O)C3(C)CC3)c2)cn1 [Example 1-058] | 100% |
| CN(C)C(=O)C(=O)Nc1cc(-c2cnn(-c3c(C(F)(F)F)c(C(F)(F)C(F)(F)F)nn3C)c2)ccc1F [Example 1-127] | 100% |
| Cn1nc(C(F)(F)C(F)(F)F)c(C(F)(F)F)c1-n1cc(-c2cccc(NC(=O)c3cc(F)cc(F)c3)c2)cn1 [Example 1-014] | 100% |
| Cn1nc(C(F)(F)C(F)(F)F)c(C(F)(F)F)c1-n1cc(-c2cnc(Cl)c(NC(=O)c3ccncc3)c2)cn1 [Example 2-006] | 100% |

Test system: Musca domestica
Assay: Musca domestica test
Assay type: in vivo
Conditions: application rate 100 ppm; adult houseflies; after 2 days
Experimental: Solvent: dimethyl sulphoxide
To produce an appropriate active ingredient formulation, 10 mg of active ingredient are mixed with 0.5 ml of dimethyl sulphoxide, and the concentrate is diluted with water to the desired concentration.
Vessels containing a sponge treated with sugar solution and the active ingredient formulation of the desired concentration are populated with 10 adult houseflies (Musca domestica).
After 2 days, the kill in % is determined. 100% means that all of the flies have been killed; 0% means that none of the flies have been killed.

| Compound | efficacy (kill in %) |
| --- | --- |
| Cn1nc(C(F)(F)C(F)(F)F)c(C(F)(F)F)c1-n1cc(-c2ccc(F)c(NC(=O)C3(C)CC3)c2)cn1 [Example 1-058] | 80% |
| CN(C)C(=O)C(=O)Nc1cc(-c2cnn(-c3c(C(F)(F)F)c(C(F)(F)C(F)(F)F)nn3C)c2)ccc1F [Example 1-127] | 100% |
| Cn1nc(C(F)(F)C(F)(F)F)c(C(F)(F)F)c1-n1cc(-c2cccc(NC(=O)c3cc(F)cc(F)c3)c2)cn1 [Example 1-014] | 90% |
| Cn1nc(C(F)(F)C(F)(F)F)c(C(F)(F)F)c1-n1cc(-c2cnc(Cl)c(NC(=O)c3ccncc3)c2)cn1 [Example 2-006] | 90% |

Test system: Tetranychus urticae
Assay: Tetranychus urticae spray test, OP-resistant
Assay type: in vivo
Conditions: application rate 100 g/ha; after 6 days
In short: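 Bean leaf discs (Phaseolus vulgaris) carrying all stages of OP-resistant mites are sprayed with compound formulated in solvent and emulsifier-containing water. Efficacy (% mites killed) is scored after 6 days.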

| Compound | efficacy |
| --- | --- |
| Cn1nc(C(F)(F)C(F)(F)F)c(C(F)(F)F)c1-n1cc(-c2ccc(F)c(NC(=O)C3(C)CC3)c2)cn1 [Example 1-058] | 100% |
| Cn1nc(C(F)(F)C(F)(F)F)c(C(F)(F)F)c1-n1cc(-c2cccc(NC(=O)c3cc(F)cc(F)c3)c2)cn1 [Example 1-014] | 90% |
| Cn1nc(C(F)(F)C(F)(F)F)c(C(F)(F)F)c1-n1cc(-c2cnc(Cl)c(NC(=O)c3ccncc3)c2)cn1 [Example 2-006] | 100% |

Test system: Ctenocephalides felis
Assay: Ctenocephalides felis in vitro contact test with adult cat fleas
Assay type: in vivo
Conditions: application rate 1 μg/cm^2 (100 g/ha); after 48 h; fleas dead or moribund
Experimental: Ctenocephalides felis—In Vitro Contact Tests with Adult Cat Fleas
For the coating of the test tubes, 9 mg of active ingredient are first dissolved in 1 ml of acetone p.a. and then diluted to the desired concentration with acetone p.a. 250 μl of the solution are distributed homogeneously on the inner walls and base of a 25 ml test tube by turning and rocking on an orbital shaker (rocking rotation at 30 rpm for 2 h). With 900 ppm active ingredient solution and internal surface 44.7 cm^2, given homogeneous distribution, an area-based dose of 5 μg/cm^2 is achieved.
After the solvent has evaporated off, the tubes are populated with 5-10 adult cat fleas (Ctenocephalides felis), sealed with a perforated plastic lid and incubated in a horizontal position at room temperature and ambient humidity. After 48 h, efficacy is determined. To this end, the test tubes are stood upright and the fleas are knocked to the base of the tube. Fleas which remain motionless at the base or move in an uncoordinated manner are considered to be dead or moribund.
100% efficacy means that all the fleas were dead or moribund. 0% efficacy means that no fleas were harmed.

| Compound | efficacy |
| --- | --- |
| Cn1nc(C(F)(F)C(F)(F)F)c(C(F)(F)F)c1-n1cc(-c2cccc(NC(=O)c3cc(F)cc(F)c3)c2)cn1 [Example 1-014] | 80% |

Same assay, conditions: application rate 5 μg/cm^2 (500 g/ha); after 48 h; fleas dead or moribund

| Compound | efficacy |
| --- | --- |
| Cn1nc(C(F)(F)C(F)(F)F)c(C(F)(F)F)c1-n1cc(-c2ccc(F)c(NC(=O)C3(C)CC3)c2)cn1 [Example 1-058] | 100% |
| CN(C)C(=O)C(=O)Nc1cc(-c2cnn(-c3c(C(F)(F)F)c(C(F)(F)C(F)(F)F)nn3C)c2)ccc1F [Example 1-127] | 100% |
| Cn1nc(C(F)(F)C(F)(F)F)c(C(F)(F)F)c1-n1cc(-c2cnc(Cl)c(NC(=O)c3ccncc3)c2)cn1 [Example 2-006] | 100% |

Test system: Lucilia cuprina
Assay: Lucilia cuprina test
Assay type: in vivo
Conditions: application rate 100 ppm; L1 larvae; after 2 days
In short: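 About 20 L1 larvae placed in vessels with minced horsemeat treated with compound (DMSO concentrate diluted in water) at the desired concentration. Kill (%) scored after 2 days; 100% means all larvae dead, 0% none.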

| Compound | efficacy (kill in %) |
| --- | --- |
| Cn1nc(C(F)(F)C(F)(F)F)c(C(F)(F)F)c1-n1cc(-c2ccc(F)c(NC(=O)C3(C)CC3)c2)cn1 [Example 1-058] | 100% |
| CN(C)C(=O)C(=O)Nc1cc(-c2cnn(-c3c(C(F)(F)F)c(C(F)(F)C(F)(F)F)nn3C)c2)ccc1F [Example 1-127] | 100% |
| Cn1nc(C(F)(F)C(F)(F)F)c(C(F)(F)F)c1-n1cc(-c2cccc(NC(=O)c3cc(F)cc(F)c3)c2)cn1 [Example 1-014] | 100% |
| Cn1nc(C(F)(F)C(F)(F)F)c(C(F)(F)F)c1-n1cc(-c2cnc(Cl)c(NC(=O)c3ccncc3)c2)cn1 [Example 2-006] | 100% |

Test system: Phaedon cochleariae
Assay: Phaedon cochleariae spray test
Assay type: in vivo
Conditions: application rate 100 g/ha; larvae; after 7 days
In short: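 Chinese cabbage leaf discs were sprayed with the compound formulated in water containing 1000 ppm emulsifier. After drying, they were infested with mustard beetle larvae. Efficacy was scored as % larvae killed after 7 days (100% = all dead, 0% = none).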

| Compound | efficacy |
| --- | --- |
| CN(C)C(=O)C(=O)Nc1cc(-c2cnn(-c3c(C(F)(F)F)c(C(F)(F)C(F)(F)F)nn3C)c2)ccc1F [Example 1-127] | 100% |
| Cn1nc(C(F)(F)C(F)(F)F)c(C(F)(F)F)c1-n1cc(-c2cccc(NC(=O)c3cc(F)cc(F)c3)c2)cn1 [Example 1-014] | 100% |
| Cn1nc(C(F)(F)C(F)(F)F)c(C(F)(F)F)c1-n1cc(-c2cnc(Cl)c(NC(=O)c3ccncc3)c2)cn1 [Example 2-006] | 100% |
